Test results reported in article PMC6689897, “Drugging an undruggable pocket on KRAS” (Proceedings of the National Academy of Sciences of the …, 2019).

Tested on: NCI-H358 cells
Experiment: pERK quantification (Meso Scale Discovery)
Type: cell-based, human
Description: Active RAS signals through RAF and MEK to induce phosphorylation of ERK (phospho-ERK). Phospho-ERK levels were quantified using a plate-based electrochemiluminescent assay (MESO SCALE DISCOVERY). […]
252 (175 cm2) using RPMI medium supplemented with 10% fetal bovine serum. Cultures
253 were incubated at 37 °C and 5% CO2 in a humidified atmosphere, with medium change
254 or subcultivation 2-3 times a week. […]
257 atmosphere, with medium change or subcultivation 2-3 times a week. In case starvation
258 conditions were used in combination with EGF stimulation, cells were kept in medium
260 stimulation (50ng/mL) for 10 minutes. […]
308 The next day the compounds (30µL of serial dilutions) were added in triplicates. The
310 nano molar minimum. Compounds (Stock: 10mM in 100% DMSO) were diluted in
311 medium. Cells were incubated at 37°C and 5% CO2 in a humidified atmosphere for 14
312 days. […]
315 wavelength was 544/15 nm, emission 590 nm. Data were fitted by iterative calculation
316 using a sigmoidal curve analysis program based on GraphPAD Prism with variable hill
319 MAPK pathway signaling (pERK, pAKT quantification)
320 MSD 96-well multispot assays for Phospho/Total ERK1/2 and Phospho(Ser473)/Total
321 AKT whole cell lysate kits (Meso Scale Discovery, Gaithersburg, MD, #K15107D,
322 #K15100D) were used according to the manufacturer’s instructions. Briefly, 50.000
323 cells were seeded per well and grown in 96 well plates. Cells were washed in ice cold
324 PBS and lysed in 50µL ice-cold lysis buffer supplemented with the provided protease
325 inhibitors. MSD plates were blocked for 1h, washed and 40µL of lysate was added in
326 duplicates to wells and incubated at room temperature for 3 hours while shaking at
327 400rpm. To measure the amount of phosphorylated AKT or ERK, the specific primary
328 antibody was added for 1 hour. After washing, read buffer was added and the plates
329 were measured on a SECTOR 6000 instrument (Meso Scale Discovery). Samples were
330 normalized to total ERK or total AKT values, respectively.
332 RAS GTP detection (Ras G-LISA Activation assay):
333 Ras-GTP levels were analyzed using a Ras G-LISA assay kit (Cytoskeleton Inc.,
335 600.000 cells were seeded in 6 wells and grown to 70% confluence. Cells were washed
337 provided protease inhibitor cocktail. Lysates were quickly frozen in liquid nitrogen
338 and stored at -80°C until further usage. After normalizing protein concentration, 40µg
339 of protein was added in duplicates to wells of the Ras G-LISA plate coated with Ras
340 GTP-binding protein and incubated at 4°C for 30 minutes while shaking at 400rpm. […]
344 HRP detection reagent. Absorbance was measured by 490nm using an EnSpire
345 Multimode Reader (Perkin Elmer). Background was determined by a negative control […]

Q: Which “inhibition of pERK compared with 1” value (high growth factor conditions, 2 h) does the source give for `C=CC(=O)N1CCN(c2ncnc3c(F)c(-c4c(O)cccc4F)c(Cl)cc23)CC1` [ARS-1620, reference compound] here?
A: similar, albeit more extended, inhibition of pERK

Q: How did the EC50 (Homo sapiens, NCI-H358, high growth factor conditions, 2 h, read-out: EC50 inhibition of pERK relative to total ERK) turn out when `Cn1cnc(Cn2ccc3ccc(CNCc4[nH]c5ccccc5c4[C@H]4NC(=O)c5ccc(O)cc54)cc32)c1` [Compound 1] was run?
A: 5.8 µM

Q: What about the pERK levels (starved 24 h low serum, 2 h compound, then EGF) of the same molecule?
A: dose-dependently reduced

Q: With `CN(C)Cc1[nH]c2ccccc2c1[C@H]1NC(=O)c2ccc(O)cc21` [Compound 18] as the molecule, how does the “decrease in phospho-ERK levels” value (at 50 µM, 2 h after treatment) read?
A: almost complete inhibition
